Source: patent US20160214956A1, “NOVEL SOLUBLE GUANYLATE CYCLASE ACTIVATORS AND THEIR USE” (GLAXOSMITHKLINE INTELLECTUAL PROPERTY DEVELOPMENT LIMITED, priority 2013, published 2016)

How the values were obtained:
[1] = system: intraocular pressure; assay: IOP in Japanese White rabbits after intravitreal administration; type: in vivo; details: FIG. 2
Experimental: (§1) In Japanese White rabbits, IOP was measured at baseline (immediately preceding administration of test article) and at predetermined time points (1, 2, 3, 5, 7, 9, 24 hours; additional time points were 30 and 48 hours after intravitreal administration) after topical (FIG. 1) or intravitreal (FIG. 2) administration of ophthalmic formulations containing drug, vehicle or saline using applanation tonometry. Test articles were topically administered in a 50 microliter volume to the right eye, saline in a 50 microliter volume to the contralateral, left eye. For intravitreal administration, dosing volumes were 20 microliters instead. For each animal, the difference between right eye IOP and left eye IOP was calculated as delta IOP.

[2] = molecular target: T1, human sGC (Homo sapiens, UniProt Q02153); assay: sGC enzyme assay, fluorescence polarisation of labelled cGMP; type: biochemical; details: human sGC 1 nM, FP assay; concentration able to increase by 5-fold basal cGMP
T1 sequence (Q02153 1-619): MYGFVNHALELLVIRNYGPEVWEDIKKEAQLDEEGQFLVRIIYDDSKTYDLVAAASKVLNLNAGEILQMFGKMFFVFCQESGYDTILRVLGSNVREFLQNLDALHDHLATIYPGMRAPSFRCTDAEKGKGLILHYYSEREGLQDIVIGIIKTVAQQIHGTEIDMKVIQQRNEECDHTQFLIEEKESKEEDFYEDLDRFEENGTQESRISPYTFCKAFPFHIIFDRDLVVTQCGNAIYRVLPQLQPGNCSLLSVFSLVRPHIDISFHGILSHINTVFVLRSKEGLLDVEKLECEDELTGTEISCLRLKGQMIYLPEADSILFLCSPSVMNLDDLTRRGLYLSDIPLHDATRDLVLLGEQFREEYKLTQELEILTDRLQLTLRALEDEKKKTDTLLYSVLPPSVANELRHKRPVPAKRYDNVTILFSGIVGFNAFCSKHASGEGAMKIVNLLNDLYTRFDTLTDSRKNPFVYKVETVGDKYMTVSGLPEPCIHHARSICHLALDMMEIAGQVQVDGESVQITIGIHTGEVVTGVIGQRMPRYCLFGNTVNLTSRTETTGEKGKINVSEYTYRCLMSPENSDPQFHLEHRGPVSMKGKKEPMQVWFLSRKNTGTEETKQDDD
T1 sequence (Q02108 1-690 partner): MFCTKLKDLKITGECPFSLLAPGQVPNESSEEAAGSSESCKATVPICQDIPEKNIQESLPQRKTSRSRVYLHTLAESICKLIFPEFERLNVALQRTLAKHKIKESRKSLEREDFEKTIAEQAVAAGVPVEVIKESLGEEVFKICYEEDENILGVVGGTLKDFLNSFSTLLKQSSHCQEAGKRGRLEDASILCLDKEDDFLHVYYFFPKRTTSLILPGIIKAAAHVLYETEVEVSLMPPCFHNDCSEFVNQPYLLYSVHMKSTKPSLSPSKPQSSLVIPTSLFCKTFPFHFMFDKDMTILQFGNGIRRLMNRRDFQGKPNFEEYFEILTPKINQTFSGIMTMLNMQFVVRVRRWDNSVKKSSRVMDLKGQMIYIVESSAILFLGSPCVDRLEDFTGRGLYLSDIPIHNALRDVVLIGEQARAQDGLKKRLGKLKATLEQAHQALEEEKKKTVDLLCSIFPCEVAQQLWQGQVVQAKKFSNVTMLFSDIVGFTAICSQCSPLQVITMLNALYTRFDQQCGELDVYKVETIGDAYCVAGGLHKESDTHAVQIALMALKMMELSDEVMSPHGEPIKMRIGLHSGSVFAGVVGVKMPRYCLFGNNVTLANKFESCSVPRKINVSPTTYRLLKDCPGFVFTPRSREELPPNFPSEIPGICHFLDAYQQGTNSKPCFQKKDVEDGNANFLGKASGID
Experimental: The activity of soluble guanylate cyclase (sGC) was tested in an assay based on measuring the fluorescent polarisation (FP) signal of fluorescently labelled cGMP. FP increased on interaction with an anti-cGMP antibody as the motility of the molecule was reduced. Newly produced cGMP displaced the interaction giving rise to a decrease in polarisation and FP signal which was equated to enzyme activity. Compounds were incubated with human sGC, anti-cGMP antibody, the GTP substrate and fluorescently labelled cGMP. After a period of one hour the assay was stopped with the addition of EDTA and after a further hour the assay was read.
Human sGC was thawed and resuspended in assay buffer (100 mM TRIS, 10 mM MgCl2, 0.2 mM Tween 20, pH7.4, containing 1:100 dilution of sheep anti-cGMP) to give final concentration of 1 nM in the well. A substrate solution was prepared containing GTP and 8-fluo-cGMP in de-ionized water to a final concentration of 25 μM and 50 nM respectively. Assay plates containing 5 μL of various test compounds and of a standard agonist (50 μM-50 nM) in 1% DMSO as 6 point, four fold dilutions across a 96 well plate were used in the assay. The plate also contained 6 wells of DMSO (1%) to produce high control and a cGMP standard curve (14 nM to 10 μM) to convert FP data to cGMP concentration. 25 μL of enzyme mix and 20 μl of substrate mix described above were added to each well of the plate. Samples were mixed on an orbital shaker and then incubated at room temperature for 1 hour. After this incubation period 5 μl of 0.5M EDTA was added to all wells and the plates were incubated for a further hour at room temperature prior to reading the FP signal in an appropriate reader. For data handling FP data were converted to cGMP concentrations and then fitted using ActivityBase software. The activity of a test compound was determined as the pEC500 value which is the concentration able to increase by 5-fold basal cGMP.

[3] = system: intraocular pressure; assay: IOP in Japanese White rabbits after topical administration; type: in vivo; details: 50 microliter to right eye, FIG. 1
Experimental: as §1

[4] = system: intraocular pressure; assay: IOP in normal C57BL/6J mice after topical administration; type: in vivo; details: 4 microliter to right eye, compared with latanoprost, FIG. 3
Experimental: Additionally, the effect on IOP in normal mice was also assessed. In C57BL/6J mice, IOP was measured at baseline (immediately preceding administration of test article) and at predetermined time points (1, 2, 3, 4, 6, 8, 24 hours) after topical administration of ophthalmic formulations containing drug, vehicle or saline using a TonoLab. Test articles were administered in a 4 microliter volume to the right eye, saline in a 4 microliter volume to the contralateral, left eye. For each animal, the difference between right eye IOP and left eye IOP was calculated as delta IOP.

Compound	sGC pEC500 [2]	other results
Cc1cc(OCCCC(F)(F)F)ccc1CCc1ccccc1-c1cccc(-n2ncc(C(=O)O)c2C(F)(F)F)n1 [Example 1, 1-(6-(2-(2-methyl-4-(4,4,4-trifluorobutoxy)phenethyl)phenyl)pyridin-2-yl)-5-(trifluoromethyl)-1H-pyrazole-4-carboxylic acid]	6.95	effect on IOP (delta IOP) ([1]; 20 microliters to right eye): long-lasting and effective reduction in IOP; duration of IOP reduction [1]: at least 48 hours; effect on IOP (delta IOP) [3]: dose-dependently and effectively decreased IOP; effect on IOP (delta IOP) [4]: lowered IOP with efficacy similar to latanoprost, but without the initial hypertensive spike
Cc1cc(OCCCn2ccc(C(F)(F)F)n2)ccc1CCc1ccccc1-c1cccc(-n2ncc(C(=O)O)c2C(F)(F)F)n1 [Example 3, 1-(6-(2-(2-methyl-4-(3-(3-(trifluoromethyl)-1H-pyrazol-1-yl)propoxy)phenethyl)phenyl)pyridin-2-yl)-5-(trifluoromethyl)-1H-pyrazole-4-carboxylic acid]	7.88	
O=C(O)c1cnn(-c2cccc(-c3ccccc3OCc3ccc(OCCCC(F)(F)F)cc3F)n2)c1C(F)(F)F [Example 5, 1-(6-(2-((2-fluoro-4-(4,4,4-trifluorobutoxy)benzyl)oxy)phenyl)pyridin-2-yl)-5-(trifluoromethyl)-1H-pyrazole-4-carboxylic acid]	6.88	
COCCCOc1ccc(COc2ccccc2-c2cccc(-n3ncc(C(=O)O)c3C(F)(F)F)n2)c(F)c1 [Example 6, 1-(6-(2-((2-fluoro-4-(3-methoxypropoxy)benzyl)oxy)phenyl)pyridin-2-yl)-5-(trifluoromethyl)-1H-pyrazole-4-carboxylic acid]	7.4	
Cc1cc(OCCCC#N)ccc1COc1ccccc1-c1cccc(-n2ncc(C(=O)O)c2C(F)(F)F)n1 [Example 9, 1-(6-(2-((4-(3-cyanopropoxy)-2-methylbenzyl)oxy)phenyl)pyridin-2-yl)-5-(trifluoromethyl)-1H-pyrazole-4-carboxylic acid]	7.73	
COCCCOc1ccc(COc2ccccc2-c2cccc(-n3ncc(C(=O)O)c3C(F)(F)F)n2)c(C)c1 [Example 10, 1-(6-(2-((4-(3-methoxypropoxy)-2-methylbenzyl)oxy)phenyl)pyridin-2-yl)-5-(trifluoromethyl)-1H-pyrazole-4-carboxylic acid]	7.79	
Cc1cc(OCCCC(F)(F)F)ccc1COc1ccccc1-c1cccc(-n2ncc(C(=O)O)c2C(F)(F)F)n1 [Example 11, 1-(6-(2-((2-methyl-4-(4,4,4-trifluorobutoxy)benzyl)oxy)phenyl)pyridin-2-yl)-5-(trifluoromethyl)-1H-pyrazole-4-carboxylic acid]	7.47	
